In one test the target is T1, TAO2 (Homo sapiens, UniProt Q9UL54).
T1 construct: endogenous in cells; host or cells: AMO1, KMS27
As to the kind of experiment: Immunoblot of TAO2 depletion. To be noted: AMO1 and KMS27 cells, 4 h. It counts as cell-based. Here is the method:
Cells were lysed in buffer containing 20 mM HEPES 7.2, 150 mM NaCl, and 1% Triton X-100, supplemented with fresh protease and phosphatase inhibitors (Invitrogen, #78440), cleared by centrifugation at 12,000 × g for 10 min, and analyzed by BCA protein assay (Thermo Fisher Scientific, #23227). Equal protein amounts were loaded, separated by SDS-PAGE, electrotransferred to nitrocellulose membranes using the iBLOT2 system (Invitrogen), and blocked in 5% nonfat milk solution for 60 min. Membranes were probed with primary antibodies at 1:1000 dilution in 5% milk at 4 °C overnight. Signal was detected using appropriate horseradish peroxidase (HRP)-conjugated secondary antibodies at 1:10,000 in 5% milk at room temperature for 1–2 h. Bands were visualized by the Azure 600 western blot imaging system (Azure Biosystems). For in vitro ubiquitination assays performed with Me-Ub, bands were visualized by the Odyssey CLx Imager (LI‑COR) after incubating the blots with the IRDye 800CW (LI-COR) secondary antibodies at 1:10,000 in Intercept Blocking Buffer (LI-COR) at room temperature for 1–2 h. […]
The kinome selectivity of G6374 was assessed at 1 μM for 1 h versus a panel of 220 human kinases (SelectScreen Kinase Profiling Services, Thermo Fisher Scientific). […]
(Immunoblotting shows a protein as a band on a membrane.)

A further test concerns IRE1. Details: method as in earlier work. To be noted: VHL:G6374:IRE1; cited from earlier work.

T1 sequence (Q9UL54 whole entry): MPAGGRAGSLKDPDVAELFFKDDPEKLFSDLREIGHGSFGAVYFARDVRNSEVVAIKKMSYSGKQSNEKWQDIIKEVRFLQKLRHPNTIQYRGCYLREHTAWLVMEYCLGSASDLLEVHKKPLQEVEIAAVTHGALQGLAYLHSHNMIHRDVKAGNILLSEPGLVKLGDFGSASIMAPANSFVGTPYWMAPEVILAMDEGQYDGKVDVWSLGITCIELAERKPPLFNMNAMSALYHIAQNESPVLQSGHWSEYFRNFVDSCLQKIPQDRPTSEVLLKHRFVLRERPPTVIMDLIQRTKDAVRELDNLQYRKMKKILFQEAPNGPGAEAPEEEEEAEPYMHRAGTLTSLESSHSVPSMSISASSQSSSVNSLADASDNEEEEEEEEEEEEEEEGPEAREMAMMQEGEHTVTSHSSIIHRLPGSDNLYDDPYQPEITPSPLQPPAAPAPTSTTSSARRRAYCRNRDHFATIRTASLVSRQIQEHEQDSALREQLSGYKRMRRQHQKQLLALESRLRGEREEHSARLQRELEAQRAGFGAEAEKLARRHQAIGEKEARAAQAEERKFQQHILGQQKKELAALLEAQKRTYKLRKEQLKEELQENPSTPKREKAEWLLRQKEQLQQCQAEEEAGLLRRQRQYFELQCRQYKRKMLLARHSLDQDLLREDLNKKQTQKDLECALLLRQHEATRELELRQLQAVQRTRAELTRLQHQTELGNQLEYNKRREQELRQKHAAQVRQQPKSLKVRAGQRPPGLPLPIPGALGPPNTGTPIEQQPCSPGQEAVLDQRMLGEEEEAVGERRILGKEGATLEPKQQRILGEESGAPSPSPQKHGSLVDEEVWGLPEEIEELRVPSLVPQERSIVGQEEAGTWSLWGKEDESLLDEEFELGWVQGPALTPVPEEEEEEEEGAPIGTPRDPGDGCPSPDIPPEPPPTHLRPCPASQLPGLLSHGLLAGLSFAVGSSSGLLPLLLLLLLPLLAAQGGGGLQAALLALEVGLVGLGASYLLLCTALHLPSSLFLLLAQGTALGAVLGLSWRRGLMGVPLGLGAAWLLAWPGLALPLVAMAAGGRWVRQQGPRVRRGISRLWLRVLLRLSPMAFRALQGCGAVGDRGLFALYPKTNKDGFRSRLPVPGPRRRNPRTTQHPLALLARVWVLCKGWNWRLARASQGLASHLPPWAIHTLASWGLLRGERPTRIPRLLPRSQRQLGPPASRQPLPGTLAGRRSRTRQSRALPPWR

Regarding `Cc1ncsc1-c1ccc(CNC(=O)[C@@H]2C[C@@H](O)CN2C(=O)[C@@H](NC(=O)CCCCN2CCN([C@H]3CC[C@H](Nc4ncc5ccc(=O)n(C(C)C)c5n4)CC3)CC2)C(C)(C)C)cc1` [G6374], the “depletion of TAO2” value on TAO2 is “did not deplete TAO2”. Further, the Dmax with IRE1 was 95%.

Values taken from paper PMC12749748, “Chemically-induced degradation of the endoplasmic-reticulum stress sensor IRE1 by a VHL-recruiting chimera” (Nature Communications, 2025).
